“Also recorded” adds a separate entry of the source. Read-outs that look alike come from different tables or passages of the source.
Key:
PC12 cells = test: PC12 cell differentiation assay (neurite outgrowth); format: cell-based; settings: for EC50 / Emax: Rattus norvegicus, PC-12, PC12 cells in N2 medium, 24 hours, neurites scored; for EC50: read-out: EC50 (μM), induction of PC12 cell differentiation; for Emax: read-out: Maximal Efficacy, induction of PC12 cell differentiation
Procedure: Four trihydroxyflavones (THF) and three dihydroxyflavones (DHF) which lack one or two, respectively, of the hydroxyl groups found in fisetin were tested for their ability to induce the differentiation of PC12 cells. Differentiation was assessed by scoring neurite outgrowth (Sagara et al., J. Neurochem., 90:1144-1155, 2004). […]
PC12 cells in N2 medium were treated with flavonoids for 24 hours at which time the cells were scored for the presence of neurites. PC12 cells produce neurites much more rapidly when treated in N2 medium than when treated in regular growth medium (Kimura et al., J. Cell Biol., 116:777-83, 1992). For each treatment, 100 cells in each of three separate fields were counted. Cells were scored positive if one or more neurites>1 cell body diameter in length were observed.

HT22 cells = test: Protection of HT22 cells from oxidative glutamate toxicity (MTT assay); format: cell-based, mouse; settings: for EC50 / Emax: 5 mM glutamate, MTT assay; for EC50: read-out: EC50 (μM), protection from oxidative-stress induced death; for Emax: HT-22, read-out: Maximal Efficacy, protection from oxidative-stress induced death; for effect of higher levels of BSO on protection: 5 mM glutamate + 1 mM BSO
Description: Fisetin is effective at protecting nerve cells from oxidative stress-induced death (Ishige et al., Free Radic. Biol. Med., 30:433-446, 2001). This Example illustrates the structure-activity relationship between fisetin derivatives and neuroprotection in a model of oxidative glutamate toxicity using mouse HT22 cells. This pathway of programmed cell death is initiated by the addition of glutamate to the extracellular medium. Glutamate inhibits the uptake of cystine which is required for glutathione (GSH) biosynthesis, resulting in the depletion of GSH in neurons (for review see Tan et al., Curr. Top. Med. Chem., 1:497-506, 2001). Subsequently, this decrease in cellular GSH results in the production of reactive oxygen species (ROS) by mitochondria. The ROS accumulation then causes Ca^+2 influx from the extracellular medium which leads to cell death.
HT22 cells were untreated (Ct) or treated with 10 μM fisetin, 25 μM 3,3′-DHF, 25 μM 3,4′-DHF, 2.5 μM 3′,4′-DHF, 2.5 μM 3,3′,4′-THF 25 μM 3,7,3′-THF, 25 μM 3,7,4′-THF or 10 μM 7,3′,4′-THF in the presence of 5 mM glutamate±50 μM PD98059. Twenty four (24) hours later cell survival was measured by the MTT assay.
HT22 cells were untreated (Ct) or treated with 10 μM fisetin, 25 μM 3,3′-DHF. […] Protection by all of the other flavonoids was unaffected by BSO.
Cell viability was determined by a modified version of the 3-(4,5-dimethylthiazol-2-yl)-2,5-diphenyl tetrazolium bromide (MTT) assay based on the standard procedure (Hansen et al., J. Immunol. Meth., 119:203-10, 1989). Briefly, cells were seeded onto 96-well microtiter plates at a density of 5×10^3 cells per well. The next day, the medium was replaced with DMEM supplemented with 7.5% DFCS and the cells were treated with the different flavonoids alone or in the presence of 5 mM glutamate. Twenty four hours later, the medium in each well was aspirated and replaced with fresh medium containing 2.5 μg/ml MTT. After 4 hours of incubation at 37° C., cells were solubilized with 100 μl of a solution containing 50% dimethylformamide and 20% SDS (pH 4.7). The absorbance at 570 nm was measured on the following day with a microplate reader (Molecular Devices). Results obtained from the MTT assay correlated directly with the extent of cell death as confirmed visually. Controls employing wells without cells were used to determine the effects of the agents upon the assay chemistry.

Nrf2 and HO-1 = Nrf2 and HO-1 induction in HT22 cells (immunoblotting); format: cell-based, mouse; settings: for increasing the levels of Nrf2 and inducing HO-1 synthesis: HT22 cells, 10-25 μM, 4 hours (Nrf2), 24 hours (HO-1)
Procedure: Since the ability to activate the ARE could be important for some of the beneficial effects of flavonoids such as fisetin, it was determined which, if any, of the fisetin derivatives could activate the ARE and induce the synthesis of downstream proteins such as HO-1. HT22 cells were untreated (control) or treated with 10 μM fisetin, 25 μM 3,3′DHF, 25 μM 3,4′-DHF, 10 μM 3′,4′-DHF, 10 μM 3,3′,4′-THF, 25 μM 3,7,3′-THF, 25 μM 3,7,4′-THF or 10 μM 7,3′,4′-THF for 4 hours. Nuclei were prepared and equal amounts of protein were analyzed by SDS-PAGE and immunoblotting with anti-Nrf-2 antibodies.
ERK activation is implicated in the induction of Nrf2 by certain stimuli in some cell types. To determine if ERK activation plays a role in the induction of Nrf2 and HO-1 by fisetin and its derivatives, cells were pretreated with PD98059 prior to the addition of the flavonoids to the cells. HT22 cells then were untreated (control) or treated for 24 hours with 10 μM fisetin, 25 μM 3,3′-DHF, 25 μM 3,4′-DHF, 10 μM 3′,4′-DHF, 10 μM 3,3′,4′-THF, 25 μM 3,7,3′-THF, 25 μM 3,7,4′-THF or 10 μM 7,3′,4′-THF. Cell lysates were prepared and equal amounts of cellular protein were analyzed by SDS-PAGE and immunoblotting with anti-HO-1 antibodies. Immunoblotting with anti-actin was used as a loading control.
For immunoblotting of HO-1, untreated and flavonoid-treated HT22 cells from the same density cultures as used for the cell death assays were washed twice in cold phosphate-buffered saline (PBS) then scraped into lysis buffer containing 50 mM HEPES, pH 7.4, 150 mM NaCl, 50 mM NaF, 1.5 mM MgC2, 1 mM EGTA, 10% glycerol, 1% Triton X-100, 10 mM sodium pyrophosphate, 1 mM Na3VO4, 1 mM phenylmethylsulfonyl fluoride (PMSF), 15 μg/ml aprotinin, 1 μg/ml pepstatin, and 5 μg/ml leupeptin. Lysates were incubated at 4° C. for 30 minutes, and then cleared by centrifugation at 14,000 rpm for 10 minutes. For immunoblotting of Nr12, nuclear extracts were prepared as described (Schreiber et al., Nuc. Acids Res., 17:6419, 1989) from untreated and flavonoid-treated cells. […] Protein concentrations were determined using the BCA protein assay (Pierce). Equal amounts of protein were solubilized in 2.5×SDS sample buffer, separated on 10% SDS polyacrylamide gels and transferred to nitrocellulose. The primary antibodies used were: anti-Nrf2 (#SC13032; 1/1000) from Santa Cruz Biotechnology (Santa Cruz, Calif.) and anti-HO-1 (#SPA-896; 1/5000) from Stressgen (Victoria, BC Canada).

[1] = Mus musculus, HT-22, 24 h, HT22 cells, 24 hours
[2] = Mus musculus, HT22 cells, 24 hours

Compound	ability to induce differentiation (PC12 cells; PC12 cells)	EC50 (PC12 cells)	Emax (PC12 cells)	differentiation of the PC12 cells (PC12 cells; concentration of 5 μM)	effect of low levels of BSO on protection (HT22 cells; 5 mM glutamate + 50 μM BSO, 24 hours, MTT)	EC50 (HT22 cells; HT22 cells, 24 hours)	protection from oxidative stress-induced death (HT22 cells; HT22 cells, glutamate)	EC50 (HT22 cells; [1])	Emax (HT22 cells; [2])	protection from oxidative stress-induced death (HT22 cells; at 2.5 μM)	increasing the levels of Nrf2 and inducing HO-1 synthesis (Nrf2 and HO-1)	effect of higher levels of BSO on protection (HT22 cells; 24 hours, MTT)	effect of inhibition of ERK activation (PD98059) on Nrf2 and HO-1 induction (Nrf2 and HO-1; PD98059 pretreatment)
O=c1c(O)c(-c2ccc(O)c(O)c2)oc2ccccc12 [3,3′,4′-THF, 3,3′,4′-trihydroxyflavone]	most effective of those tested	2.5 µM	80 to 90%	> 80%	significantly reduced protection	0.75 µM	equal to or more effective than fisetin	1 µM	> 90%	> 85%	fairly effective		
O=c1cc(-c2ccc(O)c(O)c2)oc2ccccc12 [3′,4′-DHF, 3′,4′-dihydroxyflavone]		10 µM	40 to 50%				more effective than fisetin; also recorded: equal to or more effective than fisetin	0.9 µM	> 90%		weakly active	reduced protection	
O=c1c(O)c(-c2ccc(O)c(O)c2)oc2cc(O)ccc12 [fisetin, 3,3′,4′,7-tetrahydroxyflavone]		5 µM	70 to 80%					5 µM	> 90%		best of the group	reduced protection	no effect

— patent US7897637B2, “Methods of using flavonoids to enhance memory” (The Salk Institute for Biological Studies, priority 2006, dated 2011)
